Assay [1] deals with HLA-A02.01 (Homo sapiens, UniProt P04439, D140Y/D185E/D98H/E176V/E277Q/G131W/G231S/I119V/I121R/I166T/I218V/L300P/L318F/N151K/N90K/P208A/P217A/Q86G/Q94H/R138H/R169H/T345S). Kind of assay: Class I MHC peptide binding affinity (displacement of radiolabeled reference peptide). The settings on record: allele A02.01, (nM)). The method in brief: (§1)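 Peptides compete against a prebound radiolabeled reference on MHCI over 2 days at several concentrations.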

Assay [2] has as its target T1, HLA-A02.01 (Homo sapiens, UniProt P04439, D140Y/D185E/D98H/E176V/E277Q/G131W/G231S/I119V/I121R/I166T/I218V/N151K/N90K/P208A/P217A/Q86G/Q94H/R138H/R169H).
T1 construct: made in house; host or cells: E. coli
The assay is described as follows: Class I MHC peptide binding stability (pMHC-I dissociation, 125I-labeled light chain). The settings on record: allele A02.01.

Assay [3] deals with T2, HLA-B07.02 (Homo sapiens, UniProt P01889). The assay is described as above. Also noted: made in house; host or cells: E. coli. The settings on record: Allele B07.02.
Assay [4] addresses HLA-A24.02. The assay is described as follows: Class I MHC peptide binding affinity (displacement of radiolabeled reference peptide). The arrangement: species or system human. The note with it: allele A24.02; read-out: Observed Affinity (IC50; (nM)).
The test system of assay [5] is HLA-A24.02. The assay is described as follows: Class I MHC peptide binding stability (pMHC-I dissociation, 125I-labeled light chain). The settings on record: allele A24.02. Also noted: species or system human.
In assay [6] the target is HLA-B08.01 (Homo sapiens, UniProt P01889, A93T/A95T/D138N/E176V/E187T/K202T/Q94N/R180D/S35A/V36M/Y33D/Y91F). Kind of assay: Class I MHC peptide binding affinity (displacement of radiolabeled reference peptide). An outline of the steps: as §1
Assay [7] has as its target T2, HLA-B07.02. The assay is described as above. The settings on record: Allele B07.02; read-out: Observed Affinity (IC50; (nM)).
Where [8] appears, read: read-out: Observed Affinity (IC50.

Where “and” joins values, the source holds several entries; their conditions need not be identical. Identical values can stand only once. Like-named read-outs stand apart in the source and are kept apart here. Where a SMILES comes first, the peptide text is derived from it.

What is called IC50 is the concentration needed to halve the response being measured. As to `CSCC[C@H](NC(=O)[C@H](CC(C)C)NC(=O)[C@@H](N)CCCCN)C(=O)N[C@@H](CC(C)C)C(=O)N[C@@H](CC(C)C)C(=O)N[C@@H](CCCNC(=N)N)C(=O)N[C@@H](CC(C)C)C(=O)N[C@@H](CC(N)=O)C(=O)N[C@@H](CC(C)C)C(=O)O`, the IC50 in assay [1] (setting [8]) is 17 nM and 2.6 nM. The “Stability (T1/2 (h))” value was 16.9 h in assay [2] and 1.5 h in assay [3].

On to `CC[C@H](C)[C@H](NC(=O)[C@H](CO)NC(=O)[C@H](Cc1c[nH]c2ccccc12)NC(=O)[C@H](Cc1c[nH]cn1)NC(=O)[C@H](C)NC(=O)[C@@H]1CCCN1C(=O)[C@H](CCSC)NC(=O)[C@H](CC(C)C)NC(=O)[C@@H](N)CO)C(=O)O`, for which the IC50 amounted to 48 nM in assay [1] (setting [8]) and 633 nM in assay [4]. The “Stability (T1/2 (h))” value is reported as 5 h in assay [2] and 0.4 h in assay [5].

Consider `CC(C)C[C@H](NC(=O)[C@H](CC(C)C)NC(=O)[C@H](CC(C)C)NC(=O)CNC(=O)[C@H](Cc1ccc(O)cc1)NC(=O)[C@H](CC(C)C)NC(=O)[C@@H]1CCCN1C(=O)[C@@H](NC(=O)[C@@H](N)C(C)C)C(C)C)C(=O)O`, for which the IC50 came out at 1040 nM in assay [1] (setting [8]) and 658 nM in assay [4]. Further, the “Stability (T1/2 (h))” value turned out to be 0.6 h in assay [2] and 0.8 h in assay [5].

Compound `CC(C)C[C@H](NC(=O)[C@@H]1CCCN1C(=O)[C@H](CO)NC(=O)[C@H](CCCNC(=N)N)NC(=O)[C@H](CC(C)C)NC(=O)[C@H](CCCCN)NC(=O)[C@H](CCCCN)NC(=O)[C@@H](N)CC(C)C)C(=O)O` (H-LKKLRSPL-OH; N-terminus and C-terminus assumed) had an IC50 in assay [6] of 0.6 nM.

With `CC(C)C[C@H](NC(=O)[C@@H]1CCCN1C(=O)[C@@H]1CCCN1C(=O)[C@@H](NC(=O)[C@H](CO)NC(=O)[C@H](CC(C)C)NC(=O)[C@H](CC(C)C)NC(=O)[C@H](CCC(=O)O)NC(=O)[C@@H](N)Cc1ccccc1)[C@@H](C)O)C(=O)O` (H-FELLSTPPL-OH; N-terminus and C-terminus assumed), the results for the IC50 in assay [1] (Observed Affinity (IC50) and in assay [6] were 225 nM and 3180 nM, respectively.

`C[C@H](NC(=O)[C@H](CO)NC(=O)[C@H](C)NC(=O)[C@@H]1CCCN1C(=O)[C@H](C)NC(=O)[C@@H]1CCCN1C(=O)[C@H](CCCNC(=N)N)NC(=O)[C@@H]1CCCN1C(=O)[C@@H](N)Cc1c[nH]cn1)C(=O)O`: the “Stability (T1/2 (h))” value in assay [3] stood at 4.9 h.

Regarding `CSCC[C@H](NC(=O)[C@H](CCC(=O)O)NC(=O)[C@H](CC(C)C)NC(=O)[C@H](CC(C)C)NC(=O)[C@H](CC(C)C)NC(=O)CNC(=O)[C@H](Cc1ccc(O)cc1)NC(=O)[C@H](CC(C)C)NC(=O)[C@@H]1CCCN1)C(=O)N[C@@H](CC(C)C)C(=O)O` (H-PLYGLLLEML-OH; N-terminus and C-terminus assumed), the half-inhibitory concentration (IC50) in assay [1] (setting [8]) was 797 nM; in assay [4], 444 nM. Besides, the “Stability (T1/2 (h))” value in assay [5] is reported as 6.3 h.

Take `CC(C)C[C@H](N)C(=O)N[C@@H](C)C(=O)N[C@H](C(=O)N[C@@H](CCC(=O)O)C(=O)N[C@@H](CCCCN)C(=O)N[C@@H](CO)C(=O)N[C@@H](CCCNC(=N)N)C(=O)N[C@@H](Cc1c[nH]c2ccccc12)C(=O)N[C@@H](CO)C(=O)NCC(=O)O)[C@@H](C)O` (H-LATEKSRWSG-OH; N-terminus and C-terminus assumed): the IC50 came to 23300 nM in assay [1] (Observed Affinity (IC50) and 46600 nM in assay [6].

`CC[C@H](C)[C@H](NC(=O)[C@H](CC(N)=O)NC(=O)[C@H](CCSC)NC(=O)[C@H](Cc1c[nH]cn1)NC(=O)[C@H](CC(N)=O)NC(=O)CNC(=O)[C@H](CC(C)C)NC(=O)[C@@H](N)Cc1ccc(O)cc1)C(=O)N[C@@H](C)C(=O)O` (H-YLGNHMNIA-OH; N-terminus and C-terminus assumed): the IC50 in assay [1] (Observed Affinity (IC50) worked out at 117 nM; in assay [6] it was 872 nM. In addition, the “Stability (T1/2 (h))” value in assay [2] amounted to 0.6 h.

For the compound `CC[C@H](C)[C@H](NC(=O)[C@@H](NC(=O)[C@H](CC(C)C)NC(=O)[C@@H](NC(=O)[C@@H]1CCCN1C(=O)[C@H](CCCNC(=N)N)NC(=O)[C@H](Cc1c[nH]c2ccccc12)NC(=O)[C@H](CC(N)=O)NC(=O)[C@@H](N)CCSC)[C@@H](C)CC)[C@@H](C)O)C(=O)O` (H-MNWRPILTI-OH; N-terminus and C-terminus assumed), the IC50 in assay [1] (setting [8]) is 516 nM; in assay [4] it was 6980 nM. In addition, the “Stability (T1/2 (h))” value in assay [2] amounted to 3.8 h; in assay [5], 0.2 h.

As to `CC(C)C[C@H](NC(=O)[C@H](CC(=O)O)NC(=O)[C@H](CO)NC(=O)[C@H](CCC(N)=O)NC(=O)[C@H](CCC(N)=O)NC(=O)[C@H](CCC(N)=O)NC(=O)[C@H](CCC(N)=O)NC(=O)[C@H](CCC(N)=O)NC(=O)[C@@H](N)Cc1ccc(O)cc1)C(=O)O` (H-YQQQQQSDL-OH; N-terminus and C-terminus assumed), the 50% inhibitory concentration (IC50) is 799 nM in assay [1] (Observed Affinity (IC50) and 18900 nM in assay [6]. The “Stability (T1/2 (h))” value in assay [2] is reported as 0.4 h.

With `CC(C)C[C@H](NC(=O)[C@H](C)NC(=O)[C@@H](NC(=O)[C@H](CCCNC(=N)N)NC(=O)[C@H](CO)NC(=O)[C@H](CC(=O)O)NC(=O)[C@H](CO)NC(=O)[C@H](CC(C)C)NC(=O)[C@@H](N)CCCCN)[C@@H](C)O)C(=O)O` [KLSDSRTAL], the “Stability (T1/2 (h))” value in assay [2] is recorded as 2.8 h; in assay [3], 6.8 h.

On to `CC[C@H](C)[C@H](NC(=O)[C@H](Cc1ccccc1)NC(=O)[C@H](CCCNC(=N)N)NC(=O)[C@@H]1CCCN1C(=O)[C@H](CC(C)C)NC(=O)[C@@H](N)CO)C(=O)N[C@@H](CC(C)C)C(=O)N[C@@H](CCSC)C(=O)N[C@@H](CCC(=O)O)C(=O)N[C@@H](CC(C)C)C(=O)O`, for which the IC50 in assay [1] (setting [8]) amounted to 26 nM; in assay [4], 2770 nM. Also, the “Stability (T1/2 (h))” value in assay [2] is 0.5 h; in assay [5] it was 0.2 h; in assay [3], 0.4 h.

As to `CC(C)C[C@H](N)C(=O)N[C@@H](C)C(=O)N[C@H](C(=O)N[C@@H](CCC(=O)O)C(=O)N[C@@H](CCCCN)C(=O)N[C@@H](CO)C(=O)N[C@@H](CCCNC(=N)N)C(=O)N[C@@H](Cc1c[nH]c2ccccc12)C(=O)N[C@@H](CO)C(=O)O)[C@@H](C)O` (H-LATEKSRWS-OH; N-terminus and C-terminus assumed), the results for the IC50 in assay [1] (Observed Affinity (IC50) and in assay [6] were 61000 nM and 37000 nM, respectively.

For `CC(C)C[C@H](N)C(=O)N1CCC[C@H]1C(=O)N[C@@H](CCCNC(=N)N)C(=O)N[C@@H](CCCCN)C(=O)N1CCC[C@H]1C(=O)N[C@H](C(=O)N[C@@H](CCCNC(=N)N)C(=O)N[C@@H](C)C(=O)N[C@@H](C)C(=O)O)[C@@H](C)O`, the “Stability (T1/2 (h))” value in assay [3] worked out at 5.5 h.

Take `CC[C@H](C)[C@H](NC(=O)[C@H](CCCCN)NC(=O)[C@H](C)NC(=O)[C@@H](NC(=O)[C@@H](N)CCCNC(=N)N)C(C)C)C(=O)N[C@@H](C)C(=O)N[C@@H](CC(=O)O)C(=O)N[C@@H](Cc1ccccc1)C(=O)NCC(=O)N[C@@H](CCSC)C(=O)O` (H-RVAKIADFGM-OH; N-terminus and C-terminus assumed): the IC50 in assay [1] (setting [8]) was 125 nM; in assay [7] it was 9720 nM. For the same compound, the “Stability (T1/2 (h))” value turned out to be 0.5 h in assay [2] and 0.2 h in assay [3].

Take `CC(C)C[C@H](N)C(=O)N1CCC[C@H]1C(=O)N[C@@H](CCCNC(=N)N)C(=O)N[C@@H](CCCCN)C(=O)N1CCC[C@H]1C(=O)N[C@H](C(=O)N[C@@H](CCCNC(=N)N)C(=O)N[C@@H](C)C(=O)N[C@@H](C)C(=O)N[C@H](C(=O)O)[C@@H](C)O)[C@@H](C)O` (H-LPRKPTRAAT-OH; N-terminus and C-terminus assumed): in assay [7], the IC50 amounted to 3 nM. Further, the “Stability (T1/2 (h))” value in assay [3] was determined as 3.7 h.

Regarding `CC(C)C[C@H](NC(=O)[C@H](C)N)C(=O)N[C@@H](CO)C(=O)N[C@@H](C)C(=O)N[C@@H](CO)C(=O)N[C@@H](CC(N)=O)C(=O)N[C@@H](CO)C(=O)N[C@@H](CS)C(=O)N[C@@H](Cc1ccccc1)C(=O)O` (H-ALSASNSCF-OH; N-terminus and C-terminus assumed), the values for the IC50 in assay [1] (setting [8]), in assay [4] and in assay [7] were 728 nM, 16300 nM and 684 nM, respectively. The “Stability (T1/2 (h))” value came to 0.3 h in assay [2] and 0.2 h in assay [5].

For the compound `CC(C)[C@H](NC(=O)[C@H](CO)NC(=O)[C@@H](NC(=O)[C@@H](NC(=O)[C@H](C)NC(=O)[C@H](C)NC(=O)[C@H](CCCNC(=N)N)NC(=O)[C@@H](NC(=O)[C@@H]1CCCN1C(=O)[C@@H](N)CCCCN)[C@@H](C)O)[C@@H](C)O)C(C)C)C(=O)O` (H-KPTRAATVSV-OH; N-terminus and C-terminus assumed), the IC50 in assay [7] is 8 nM. For the same compound, in assay [3], the “Stability (T1/2 (h))” value worked out at 3 h.

Take `CC(C)C[C@H](NC(=O)[C@H](CO)NC(=O)[C@H](CCCCN)NC(=O)[C@H](CC(C)C)NC(=O)[C@@H](NC(=O)[C@H](CO)NC(=O)[C@@H]1CCCN1C(=O)[C@H](CC(C)C)NC(=O)[C@@H](N)Cc1ccccc1)[C@@H](C)O)C(=O)O`: the values for the IC50 in assay [1] (Observed Affinity (IC50), in assay [6] and in assay [4] were 21 nM, 1970 nM and 995 nM, respectively. For the same compound, the “Stability (T1/2 (h))” value in assay [5] stood at 1 h.

The values above are taken from US20220282217A1, “COMPOSITIONS AND METHODS FOR PREPARING T CELL COMPOSITIONS AND USES THEREOF” (priority 2019, published 2022).
